Reference: patent US8710252B2, “Hepodxilin analog enantiomers” (priority 2006, dated 2014)

Tests used:
[1] = tested on: Caspase-3 cleavage in K562 cells; test: Caspase-3 cleavage in K562 cells, Western blot; format: cell-based, human; details: 10 uM, 6 h, FIG. 7
Experimental: Cell culture: Human leukemia K562 cells, obtained from ATCC (American Type Culture Collection), were maintained in RPMI 1640 medium containing 100 units/ml penicillin G, 100 μg/ml streptomycin, 10% (v/v) fetal calf serum in a humidified atmosphere with 5% CO2 at 37° C. The ability of the cells to exclude trypan Blue dye was used to assess cell viability.
Cell treatment: K562 cells were stored in 0.5% FBS for 15 min before the experiment. The cells, 6×10^5, were treated with DMSO as vehicle, or with PBT-3, PBT-4, or compounds A, B, C and D at 10 uM/dish (8 ml). Gleevec™ (STI) was used at 5 μM/dish. All experiments were without FBS and treatment lasted 6 h at 37° C. Treatment was terminated by washing the cells with ice-cold PBS buffer by centrifugation at 500×g for 5 min. Cells were lysed in buffer containing 20 mM Tris-HCl buffer, pH 7.4, 150 NaCl, 1 mM EDTA, 1 mM EGTA, 1% Triton X-100 2.5 mM sodium pyrophosphate, 1 mM beta-glycerophosphate, 1 mM sodium orthovanadate, 1 mM PMSF and 1 μM leupeptin/1 μM Aprotinin/1 μM pepstain A, on ice for 30 min. The lysates were clarified by centrifugation at 15,000×g for 15 min at 4° C. Lysates were subjected to protein assay (BCA, Pierce) and kept at −80° C.
Western blot: Thirty micrograms of protein from each sample were taken, and SDS-PAGE sample loading buffer was added. The mixture was boiled for 5 min. After centrifugation, the samples were loaded onto 15% SDS-PAGE gel and the gel was run (BioRad Protein II) for 2-3 h at 20 mA. The protein was transferred to a Trans-blot Nitrocellulose membrane (Millipore). Protein bands on the membranes were checked visually with Ponceau S-staining to ensure equivalent protein load/transfer comparing different samples. Membranes were blocked with 5% non-fat dry milk in PBS containing 0.5% Tween-20 for 1 h at room temperature, and then incubated with 1:1000 dilution of anti-caspase-3 antibody (BD Transduction Laboratories, Mississauga, Canada) overnight at 4° C. Secondary antibody of horseradish peroxidase anti-mouse antibody was used at 1:2000 dilution. Bound antibodies were detected by using enhanced chemilluminescence (ECL kit, Amersham Pharmacia Biotech) and the membranes were exposed to Hyper film for ECL detection. The same membrane was stripped by placing in buffer containing 62.5 mM Tris-HCl, pH 6.8/2% SDS/100 mM beta-mercaptoethanol at 50° C. for 30 min. The membrane was washed 3 times with PBS containing 0.5% Tween-20. The membrane was blocked by PBS buffer containing 0.5% Tween-20 and 5% skim milk. The anti-tubulin antibody (Santa Cruz, Calif.) was diluted 1:1000 and membrane analyzed by ECL as described above.

[2] = biological target: T1, Ga14-DBD-PPAR gamma-LBD fusion protein (Homo sapiens, UniProt P37231); test: PPAR gamma transactivation assay (Gal4-PPAR gamma LBD / UASx4-TK-luc reporter); format: cell-based
T1 construct: expressed in transfected cells; host or cells: mouse embryonic fibroblasts (MEFs) or ME3 cells
T1 sequence (P37231 238-503 limits assumed): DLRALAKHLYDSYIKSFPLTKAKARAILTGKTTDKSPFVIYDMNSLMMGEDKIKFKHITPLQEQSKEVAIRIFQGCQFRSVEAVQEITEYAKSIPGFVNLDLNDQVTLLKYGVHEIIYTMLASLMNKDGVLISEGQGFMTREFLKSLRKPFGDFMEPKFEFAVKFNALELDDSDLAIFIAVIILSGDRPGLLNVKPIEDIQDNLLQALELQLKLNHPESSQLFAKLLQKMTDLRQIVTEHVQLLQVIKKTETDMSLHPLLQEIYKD
Source text: The UASx4-TK-luc reporter construct (where UAS refers to “upstream activator sequence”) contains four Ga14-responsive elements. The plasmid Ga14-PPAR gammaLBD encodes a Ga14-DBD-PPAR gamma-LBD fusion protein (i.e. the DNA-binding domain, DBD, of Ga14 fused to the ligand-binding domain, LBD, of PPAR gamma) capable of transactivating the UASx4-TK-luc reporter plasmid by binding to the UAS. The CMV-beta-galactosidase plasmid (where CMV is cytomegalovirus) was used for normalization of experimental values.
The cells were replated, typically in 24 well plates, so that at the time of transfection the cells were 50-70% confluent.
Briefly, per well in a 24 well plate, UASx4TKIuc (0.2 microg) Ga14-PPAR gammaLBD (or pM-hPPAR gamma-LBD; 0.1 microg) and CMV-beta-galactosidase (0.05 microg) in 30 μL DMEM (free of serum and antibiotics) was mixed with 30 microL DMEM (free of serum and antibiotics) containing 1 microL metafectenein. The mixture was incubated at room temperature for 20 min to allow formation of nucleic acid-lipid complexes and then approximately 60 micros was added to each well containing the 50-70% confluent cells. […] Cells were harvested after 12-24 hours and luciferase and beta-galactosidase activities were measured according to standard protocols.
Each experiment was carried out with triplicate samples with 0.1, 1 or 10 microM racemate or purified enantiomer.

[3] = tested on: washed human platelets; test: I-BOP evoked human platelet aggregation in vitro with washed platelets; format: cell-based; details: washed human platelets, 5 ng I-BOP; compounds are methyl esters; read-out: IC50, inhibition of I-BOP evoked human platelet aggregation
Experimental: Washed human platelets were prepared as previously described (Pace-Asciak et al., 2002). The aggregation of platelets was carried out in a conventional 4-well aggregometer with stirring of the suspension maintained at 37° C. The platelet suspension was caused to aggregate with a thromboxane stable analog, I-BOP. The isolated enantiomer compounds and their respective racemates, PBT-3 and PBT-4, were added at various concentrations to cuvettes containing 375×10^6 platelets/ml, 1 min prior to the addition of 5 ng I-BOP (Cayman Chemicals, Ann Arbor, Mich.). Aggregation was monitored for an additional 5 min.

[4] = tested on: human leukemic K562 cells; test: Inhibition of 3H-methyl thymidine incorporation (cell proliferation) in K562 cells; format: cell-based; details: 6 h treatment; compounds are methyl esters
Experimental: The human leukemic K562 cell line was established as previously reported (Qiao et al., 2003). Cells were maintained as suspension cultures in RPMI 1640 medium supplemented with 100 1.1/ml penicillin G, 100 μg/ml streptomycin, 10% (v/v) […] in a humidified atmosphere of 5% CO2 at 37° C. Cell viability was assessed by the exclusion of Trypan blue. Incorporation of ^3H-methyl thymidine into cell DNA was used as an assay for cell proliferation. Cells ([…]) were starved for 12 h, and were subsequently treated with the test compounds. Compounds A, B, C and D were made up at various concentrations in DMSO ([…] A, B, C and D. Concentrations were doubled for racemates PBT-3 and PBT-4) and 1 of these solutions was added/ml volume of cells. Cells were suspended in RPMI 1640 medium. At 6 h post-treatment at 37° C. the cells were fixed and denatured essentially as described in Qiao et al. (2003), harvested and passed through Whatman GF/C glass filters. The filters were washed and counted for radioactivity.

| Compound | Cleavage of caspase-3 [1] | PPAR Activation as % of positive control (Avandia) ([2]; 10 microM racemate, Table 3) | PPAR Activation as % of positive control (Avandia) ([2]; Experiment 1, 0.1 microM) | PPAR Activation as % of positive control (Avandia) ([2]; Experiment 1, 1 microM) | PPAR Activation as % of positive control (Avandia) ([2]; Experiment 1, 10 microM) | PPAR Activation as % of positive control (Avandia) ([2]; Experiment 2, 0.1 microM) | PPAR Activation as % of positive control (Avandia) ([2]; Experiment 2, 1 microM) | PPAR Activation as % of positive control (Avandia) ([2]; Experiment 2, 10 microM) | PPAR Activation as % of positive control (Avandia) ([2]; Experiment 3, 0.1 microM) | PPAR Activation as % of positive control (Avandia) ([2]; Experiment 3, 1 microM) | PPAR Activation as % of positive control (Avandia) ([2]; Experiment 3, 10 microM) | IC50 [3] | IC50 [4] |
| --- | --- | --- | --- | --- | --- | --- | --- | --- | --- | --- | --- | --- | --- |
| CCCCC/C=C\CC1CC1C(O)/C=C\C/C=C\CCCC(=O)OC (centres unmarked) [PBT-3, 10-hydroxy-11,12-cyclopropyl-eicosa-5Z,8Z,14Z-trienoic acid methyl ester, reference compound] | increased cleavage of caspase-3 | 18 +/− 1 % of positive control (Avandia) | 11 +/− 2 % of positive control (Avandia) | 15 +/− 2 % of positive control (Avandia) | 42 +/− 8 % of positive control (Avandia) | 4 +/− 1 % of positive control (Avandia) | 8 +/− 1 % of positive control (Avandia) | 41 +/− 5 % of positive control (Avandia) | 8 +/− 2 % of positive control (Avandia) | 18 +/− 4 % of positive control (Avandia) | 32 +/− 4 % of positive control (Avandia) | 54 ± 9 nM | 4600 nM |
| CCCCC/C=C\CC1CC1C(O)/C=C\C/C=C\CCCC(=O)OC (centres unmarked) [PBT-4, 10-hydroxy-11,12-cyclopropyl-eicosa-5Z,8Z,14Z-trienoic acid methyl ester, reference compound] | increased cleavage of caspase-3 | 19 +/− 1 % of positive control (Avandia) | 13 +/− 2 % of positive control (Avandia) | 13 +/− 3 % of positive control (Avandia) | 60 +/− 9 % of positive control (Avandia) | 4 +/− 1 % of positive control (Avandia) | 7 +/− 1 % of positive control (Avandia) | 32 +/− 1 % of positive control (Avandia) | 7 +/− 1 % of positive control (Avandia) | 15 +/− 7 % of positive control (Avandia) | 33 +/− 8 % of positive control (Avandia) | 79 ± 17 nM | 4900 nM |
